In patent publication US6472416B1, “Sulfonylphenylpyrazole compounds useful as COX-2 inhibitors” (Abbott Laboratories, priority 1999, dated 2002):
Values belong to the compound of their own block, whether it stands above or below them.

Key:
[1] = tested on: IL-1β induced PGE2 production in human amnionic WISH cells; assay: IL-1β Induced PGE2 Production in WISH Cells; format: cell-based; conditions: IL-1β 18 hour
Method: (§1) EIA reagents for prostaglandin determination were purchased from Perseptive Diagnostics, (Cambridge, Mass.). Prostaglandin E2 (PGE2) levels in lavage fluids were determined after the samples were dried under nitrogen and reconstituted with assay buffer. PGE2 levels in enzyme assays or cell culture media were measured against standards prepared in the same milieu. The immunoassays were conducted as recommended by the manufacturer. The EIA was conducted in 96 well microtiter plates (Nunc Roskilde, Denmark) and optical density was measured using a microplate reader (Vmax, Molecular Devices Corp., Menlo Park, Calif.).
Human amnionic WISH cells were grown to 80% confluence in 48 well plates. Following removal of the growth medium and two washings with Gey's Balanced Salt Solution, 5 ng IL-1β/ml (UBI, Lake Placid, N.Y.) was added to the cells with or without test compound in DMSO (0.01% v/v) in Neuman-Tytell Serumless Medium (GIBCO, Grand Island, N.Y.). Following an 18 hour incubation to allow for the maximal induction of PGHS-2, the conditioned medium was removed and assayed for PGE2 content by EIA anylysis as described above.
WISH cell values indicate percent inhibition at the particular dose level.

[2] = target: T1, recombinant human Cox-1 (r-hu Cox-1, PGHS-1) (Homo sapiens, UniProt P23219); assay: Recombinant human PGHS-1 (r-hu Cox-1) enzyme assay, PGE2 by EIA; format: biochemical
T1 construct: made in house; host or cells: baculovirus/Sf9 insect cells (microsomes)
Method: (§2) To compare the mean responses of the treatment groups, analysis of variance was applied. Percent inhibition values were determined by comparing the individual treatment mean values to the mean of the control group. Linear regression was used to estimate IC50's/ED50's in appropriate assays.
as §1
(§3) Inhibition of prostaglandin biosynthesis in vitro was evaluated using recombinant human Cox-1 (r-hu Cox-1) and Cox-2 (r-hu Cox-2) enzyme assays. […] The reaction was allowed to run for 2.5 minutes at room temperature prior to quenching with HCl and neutralization with NaOH. PGE2 production in the presence and absence of the drug was determined by EIA analysis. The EIA was conducted in 96 well microtiter plates (Nunc Roskilde, Denmark) and optical density was measured using a microplate reader (Vmax, Molecular Devices Corp., Menlo Park, Calif.). EIA reagent for prostaglandin determination were purchased from Perseptive Diagnostics (Cambridge, Mass.). PGE2 levels were measured against standards prepared in the same milieu. The immunoassays were conducted as recommended by the manufacturer.
(§4) The compounds are designated by the Example Number. […] Values for Cox-2 inhibition that are parenthetical indicate IC50 values.

[3] = target: T2, recombinant human Cox-2 (r-hu Cox-2, PGHS-2) (Homo sapiens, UniProt P35354); assay: Recombinant human PGHS-2 (r-hu Cox-2) enzyme assay, PGE2 by EIA; format: biochemical; conditions: for IC50: read-out: r-hu COX2 IC50 (parenthetical values)
T2 construct: made in house; host or cells: baculovirus/Sf9 insect cells (microsomes)
T2 sequence (P35354 18-604): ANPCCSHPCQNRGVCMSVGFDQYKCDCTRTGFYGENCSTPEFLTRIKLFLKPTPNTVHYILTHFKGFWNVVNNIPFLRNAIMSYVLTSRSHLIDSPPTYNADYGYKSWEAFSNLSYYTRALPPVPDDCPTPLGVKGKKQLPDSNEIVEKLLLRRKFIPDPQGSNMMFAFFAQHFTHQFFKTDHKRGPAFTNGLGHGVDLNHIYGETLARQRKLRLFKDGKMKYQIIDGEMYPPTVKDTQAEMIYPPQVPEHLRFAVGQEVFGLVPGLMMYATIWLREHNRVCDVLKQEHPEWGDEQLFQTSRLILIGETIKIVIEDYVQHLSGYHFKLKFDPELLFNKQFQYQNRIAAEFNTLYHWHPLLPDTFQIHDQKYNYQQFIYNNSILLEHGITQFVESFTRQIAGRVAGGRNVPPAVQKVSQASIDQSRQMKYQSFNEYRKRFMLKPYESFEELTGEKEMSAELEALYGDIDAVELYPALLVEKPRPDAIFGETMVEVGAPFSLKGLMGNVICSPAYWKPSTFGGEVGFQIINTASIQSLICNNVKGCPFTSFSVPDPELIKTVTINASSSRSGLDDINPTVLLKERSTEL
Method: as §2, §1, §3, §4

[4] = at 100 μM, read-out: r-hu COX1 percent inhibition
[5] = at 100 nM, read-out: r-hu COX2 percent inhibition

T1 sequence (P23219 24-599): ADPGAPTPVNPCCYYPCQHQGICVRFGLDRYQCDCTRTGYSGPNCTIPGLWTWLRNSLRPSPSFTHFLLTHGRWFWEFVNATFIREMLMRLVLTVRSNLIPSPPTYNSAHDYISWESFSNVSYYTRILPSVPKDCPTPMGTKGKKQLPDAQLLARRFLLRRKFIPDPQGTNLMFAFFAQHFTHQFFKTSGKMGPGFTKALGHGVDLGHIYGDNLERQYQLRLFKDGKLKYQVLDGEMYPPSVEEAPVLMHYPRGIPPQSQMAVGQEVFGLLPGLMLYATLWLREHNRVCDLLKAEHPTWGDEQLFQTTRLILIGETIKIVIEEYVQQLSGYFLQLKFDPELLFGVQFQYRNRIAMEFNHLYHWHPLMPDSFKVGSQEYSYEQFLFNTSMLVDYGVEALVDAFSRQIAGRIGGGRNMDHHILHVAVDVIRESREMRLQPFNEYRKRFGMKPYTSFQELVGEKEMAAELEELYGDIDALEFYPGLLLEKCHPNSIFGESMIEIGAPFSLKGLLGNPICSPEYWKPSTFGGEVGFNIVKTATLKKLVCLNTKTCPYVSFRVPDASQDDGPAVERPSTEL

inhibition at 100 µM [2, 4]: 36%
inhibition at 1 µM ([3]; at 1000 nM, read-out: r-hu COX2 percent inhibition): 62%
Compound: C=CCOc1nn(CC=C)c(-c2ccc(S(C)(=O)=O)cc2)c1-c1ccc(F)cc1 [Example 9, 1-allyl-3-(allyloxy)-4-(4-fluorophenyl)-5-(4-(methylsulphonyl)phenyl)-1H-pyrazole]

inhibition at 100 µM [2, 4]: 7%
inhibition at 0.1 µM [3, 5]: 50%
melting point: 170 to 171 °C
Compound: CCn1nc(OCC(=O)c2ccc(F)cc2)c(-c2ccc(F)cc2)c1-c1ccc(OC)cc1 [Example 18, 2-{[1-Ethyl-5-(4-methoxyphenyl)-4-(4-fluorophenyl)-1H-pyrazol-3-yl]oxy}-1-(4-fluorophenyl)ethan-1-one]

inhibition at 10 µM ([2]; at 10 μM, read-out: r-hu COX1 percent inhibition): 81%
inhibition at 0.1 µM [3, 5]: 38%
melting point: 136 to 138 °C
Compound: CS(=O)(=O)c1ccc(-c2c(-c3ccc(F)cc3)c(OCC(=O)c3cccs3)nn2CC(=O)c2cccs2)cc1 [Example 20A, 2-{4-(4-Fluorophenyl)-5-(4-(methylsulphonyl)phenyl)-3-[2-(2-thienyl)-2-oxoethoxy]-1H-pyrazol-1-yl}-1-(2-thienyl)ethan-1-one]

inhibition at 100 µM [2, 4]: 0%
IC50 [3]: 5 nM
melting point: 144 to 146 °C
Compound: CCn1nc(OCC(=O)C(C)(C)C)c(-c2ccc(F)cc2)c1-c1ccc(S(C)(=O)=O)cc1 [Example 27, 1-[(1-Ethyl-4-(4-fluorophenyl)-5-(4-(methylsulphonyl)phenyl)-1H-pyrazol-3-yl)oxy]-3,3-dimethylbutan-2-one]

r-hu COX1 percent inhibition ([2]; at 10 μM): 99 @ 10%
r-hu COX2 percent inhibition ([3]; at 100 nM): 88 @ 100%
Compound: CC(C)(C)c1coc2c(-c3ccc(F)cc3)c(-c3ccc(S(N)(=O)=O)cc3)nn12 [Example 55]

r-hu COX1 percent inhibition ([2]; at 100 μM): 12 @ 100%
r-hu COX2 percent inhibition ([3]; at 10000 nM): 62 @ 10000%
Compound: CS(=O)(=O)c1ccc(-c2nn3c(c2-c2ccc(F)cc2)OCC=CC3)cc1 [Example 4, 3-(4-Fluorophenyl)-2-(4-methylsulponylphenyl)-5,8-dihydropyrazolo[5,1-b][1,3]oxazepine]

inhibition at 100 µM [2, 4]: 29%
inhibition at 10 µM ([3]; at 10000 nM, read-out: r-hu COX2 percent inhibition): 48%
Compound: CS(=O)(=O)c1ccc(-c2c(-c3ccc(F)cc3)c(OCc3ccc(F)cc3)nn2Cc2ccc(F)cc2)cc1 [Example 8, 4-(4-fluorophenyl)-5-(4-(methylsulphonyl)phenyl)-1-(4-fluorobenzyl)-3-((4-fluorobenzyl)oxy)-1H-pyrazole]

inhibition at 100 µM [2, 4]: 54%
inhibition at 0.1 µM [3, 5]: 55%
melting point: 196 to 198 °C
Compound: CCn1nc(OCC(=O)C(C)(C)C)c(-c2ccc(F)cc2)c1-c1ccc(S(N)(=O)=O)cc1 [Example 29, 1-[(1-Ethyl-4-(4-fluorophenyl)-5-(4-(aminosulphonyl)phenyl)-1H-pyrazol-3-yl)oxy]-3,3-dimethylbutan-2-one]

inhibition at 100 µM [2, 4]: 20%
inhibition at 0.1 µM [3, 5]: 37%
melting point: 210 to 211 °C
Compound: CCn1nc(OC2CSCCC2=O)c(-c2ccc(F)cc2)c1-c1ccc(S(C)(=O)=O)cc1 (stereo not shown) [Example 24, 3-[(1-Ethyl-4-(4-fluorophenyl)-5-(4-(methylsulphonyl)phenyl)-1H-pyrazol-3-yl)oxy]tetrahydro-4H-thiopyran-4-one]

inhibition at 100 µM [2, 4]: 3%
IC50 [3]: 31 nM
melting point: 163 to 164 °C
Compound: CCn1nc(OCC(=O)c2cccs2)c(-c2ccc(F)cc2)c1-c1ccc(S(C)(=O)=O)cc1 [Example 21, 2-[(1-Ethyl-4-(4-fluorophenyl)-5-(4-(methylsulphonyl)phenyl)-1H-pyrazol-3-yl)oxy]-1-(2-thienyl)ethan-1-one]

inhibition at 100 µM [2, 4]: 0%
IC50 [3]: 60 nM
melting point: 146 to 148 °C
Compound: C=CCn1nc(OCC(=O)c2cccs2)c(-c2ccc(F)cc2)c1-c1ccc(S(C)(=O)=O)cc1 [Example 22, 2-[(1-Allyl-4-(4-fluorophenyl)-5-(4-(methylsulphonyl)phenyl)-1H-pyrazol-3-yl)oxy]-1-(2-thienyl)ethan-1-one]

Continued, compound first:

Compound: 1-(4-Fluorophenyl)-2-{[4-(4-fluorophenyl)-1-methyl-5-(4-(methylsulphonyl)phenyl)-1H-pyrazol-3-yl]oxy}ethan-1-one and; 1-(4-Fluorophenyl)-2-{[4-(4-fluorophenyl)-1-methyl-3-(4-(methylsulphonyl)phenyl)-1H-pyrazol-5-yl]oxy}ethan-1-one [Example 35]
WISH percent inhibition ([1]; at 0.01 (nM)): 38 @ 0.01%
WISH percent inhibition ([1]; at 0.1 (nM)): 95 @ 0.1%

Compound: CS(=O)(=O)c1ccc(-c2[nH]nc(OC3CCCCC3=O)c2-c2ccc(F)cc2)cc1 (stereo not shown) [Example 15, 2-{[4-(4-Fluorophenyl)-5-(4-methylsulphonylpheny)-1H-pyrazol-3-yl]oxy}cyclohexanone]
r-hu COX1 percent inhibition ([2]; at 10 μM): 69 @ 10%
r-hu COX2 percent inhibition ([3]; at 100 nM): 47 @ 100%

Compound: CC(C)(C)C(=O)COc1nn(CC=C(Cl)Cl)c(-c2ccc(S(C)(=O)=O)cc2)c1-c1ccc(F)cc1 [Example 26, 1-{[1-(3,3-Dichloroallyl)-4-(4-fluorophenyl)-5-(4-(methylsulphonyl)phenyl)-1H-pyrazol-3-yl]oxy}-3,3-dimethylbutan-2-one]
inhibition at 0.0001 µM ([1]; Homo sapiens, at 0.1 (nM), read-out: WISH percent inhibition): 64%
melting point: 156 to 158 °C

Compound: CS(=O)(=O)c1ccc(-c2nn3c(c2-c2ccc(F)cc2)Oc2ccccc2C3)cc1 [Example 6, 3-(4-Fluorophenyl)-2-(4-(methylsulphonyl)phenyl)-5H-pyrazolo[1,5-b][1,3]-benzoxazine]
r-hu COX1 percent inhibition ([2]; at 100 μM): 25 @ 100%
r-hu COX2 percent inhibition ([3]; at 100 nM): 82 @ 100%

Compound: C=CCn1nc(Oc2ccccc2)c(-c2ccc(F)cc2)c1-c1ccc(S(C)(=O)=O)cc1 [Example 14, 1-Allyl-4-Fluorophenyl-5-(4-(methylsulphonyl)phenyl)-3-phenoxy-1H-pyrazole]
r-hu COX1 percent inhibition ([2]; at 100 μM): 45 @ 100%
r-hu COX2 percent inhibition ([3]; at 10000 nM): 37 @ 10000%

Compound: CS(=O)(=O)c1ccc(-c2c(-c3ccc(F)cc3)c(OCc3ccccc3)nn2Cc2ccccc2)cc1 [Example 7, 4-(4-Fluorophenyl)-5-(4-(methylsulphonyl)phenyl)-3-benzyloxy-1-benzyl-1H-pyrazole]
inhibition at 100 µM [2, 4]: 26%
inhibition at 0.1 µM [3, 5]: 42%
melting point: 174 to 175 °C

Compound: CCC(=O)COc1nn(CC(=O)CC)c(-c2ccc(S(C)(=O)=O)cc2)c1-c1ccc(F)cc1 [Example 34]
WISH percent inhibition ([1]; at 1 (nM)): 62 @ 1%

Compound: Cc1c(-c2ccc(F)cc2)oc2c(-c3ccc(F)cc3)c(-c3ccc(S(C)(=O)=O)cc3)nn12 [Example 43, 2,7-Bis(4-fluorophenyl)-3-methyl-6-(4-(methylsulphonyl)phenyl)pyrazolo[5,1-b][1,3]oxazole]
melting point: 257 to 259 °C

Compound: CC(C)(C)C(=O)COc1nn(CC(=O)C(C)(C)C)c(-c2ccc(S(C)(=O)=O)cc2)c1-c1ccc(F)cc1 [Example 25, 1-[3-(3,3-Dimethyl-2-oxobutoxy)-4-(4-fluorophenyl)-5-(4-(methylsulphonyl)phenyl)-1H-pyrazol-1-yl]-3,3-dimethylbutan-2-one]
melting point: 180 to 182 °C

Compound: CS(=O)(=O)c1ccc(-c2nn3c(-c4ccccc4)c(-c4ccccc4)oc3c2-c2ccc(F)cc2)cc1 [Example 38, 7-(4-Fluorophenyl)-6-(4-(methylsulphonyl)phenyl)-2,3-diphenylpyrazolo[5,1-b][1,3]oxazole]
melting point: 228 to 229 °C
